Assays:
[1] = molecular target: T1, HCV NS3/4A protease complex, H77 strain (Hepatitis C virus genotype 1a, UniProt P27958, C1454S/C1711G); assay: FRET peptide assay to monitor HCV NS3/4A proteolytic activity (H77 strain); format: biochemical; conditions: H77 strain (1a genotype)
T1 construct: recombinant HCV NS3/4A protease complex (amino acids 1027 to 1711) for these strains; His-tag (inferred from pET21b vector and Ni-NTA purification); made in house; host or cells: Escherichia coli BL21 (DE3), pET21b
Source text: (§1) HCV NS3 protease complexes, derived from the BMS strain, H77 strain or J4L6S strain, were generated, as described below. These purified recombinant proteins were generated for use in a homogeneous assay (see below) to provide an indication of how effective compounds of the present disclosure would be in inhibiting HCV NS3 proteolytic activity.
(§2) The H77 and J4L6S strains were used for production of recombinant NS3/4A protease complexes. DNA encoding the recombinant HCV NS3/4A protease complex (amino acids 1027 to 1711) for these strains were manipulated as described by P. Gallinari et al. (see Gallinari P, Paolini C, Brennan D, Nardi C, Steinkuhler C, De Francesco R. Biochemistry. 38(17):5620-32, (1999)). Briefly, a three-lysine solubilizing tail was added at the 3′-end of the NS4A coding region. The cysteine in the P1 position of the NS4A-NS4B cleavage site (amino acid 1711) was changed to a glycine to avoid the proteolytic cleavage of the lysine tag. Furthermore, a cysteine to serine mutation was introduced by PCR at amino acid position 1454 to prevent the autolytic cleavage in the NS3 helicase domain. […]

[2] = molecular target: T2, HCV NS3/4A protease complex, J4L6S strain (Hepatitis C virus genotype 1b, UniProt O92972, C1454S/C1711G); assay: FRET peptide assay to monitor HCV NS3/4A proteolytic activity (J4L6S strain); format: biochemical; conditions: J4L6S strain (1b genotype)
T2 construct: recombinant HCV NS3/4A protease complex (amino acids 1027 to 1711) for these strains; His-tag (inferred from pET21b vector and Ni-NTA purification); made in house; host or cells: Escherichia coli BL21 (DE3), pET21b
Source text: as §1, §2

T2 sequence (O92972 1027-1711 C1454S/C1711G, one chain of several): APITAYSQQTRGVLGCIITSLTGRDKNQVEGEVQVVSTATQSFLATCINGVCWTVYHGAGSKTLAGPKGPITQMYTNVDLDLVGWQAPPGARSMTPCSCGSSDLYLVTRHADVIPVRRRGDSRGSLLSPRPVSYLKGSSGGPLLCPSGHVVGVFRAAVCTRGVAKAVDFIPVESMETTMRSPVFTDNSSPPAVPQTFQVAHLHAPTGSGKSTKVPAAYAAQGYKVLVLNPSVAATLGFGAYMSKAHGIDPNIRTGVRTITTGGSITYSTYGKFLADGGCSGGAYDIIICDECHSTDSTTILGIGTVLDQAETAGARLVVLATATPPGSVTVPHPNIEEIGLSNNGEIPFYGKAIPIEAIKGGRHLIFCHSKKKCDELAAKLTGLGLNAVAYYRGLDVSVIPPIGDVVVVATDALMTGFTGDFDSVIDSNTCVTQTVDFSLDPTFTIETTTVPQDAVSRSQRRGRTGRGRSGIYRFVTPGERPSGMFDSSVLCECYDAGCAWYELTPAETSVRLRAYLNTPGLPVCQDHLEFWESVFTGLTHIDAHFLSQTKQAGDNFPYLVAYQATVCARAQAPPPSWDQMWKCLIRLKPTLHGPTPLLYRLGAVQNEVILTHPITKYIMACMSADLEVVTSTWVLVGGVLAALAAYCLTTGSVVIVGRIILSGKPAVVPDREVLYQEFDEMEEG
T1 sequence (P27958 1027-1711 C1454S/C1711G, one chain of several): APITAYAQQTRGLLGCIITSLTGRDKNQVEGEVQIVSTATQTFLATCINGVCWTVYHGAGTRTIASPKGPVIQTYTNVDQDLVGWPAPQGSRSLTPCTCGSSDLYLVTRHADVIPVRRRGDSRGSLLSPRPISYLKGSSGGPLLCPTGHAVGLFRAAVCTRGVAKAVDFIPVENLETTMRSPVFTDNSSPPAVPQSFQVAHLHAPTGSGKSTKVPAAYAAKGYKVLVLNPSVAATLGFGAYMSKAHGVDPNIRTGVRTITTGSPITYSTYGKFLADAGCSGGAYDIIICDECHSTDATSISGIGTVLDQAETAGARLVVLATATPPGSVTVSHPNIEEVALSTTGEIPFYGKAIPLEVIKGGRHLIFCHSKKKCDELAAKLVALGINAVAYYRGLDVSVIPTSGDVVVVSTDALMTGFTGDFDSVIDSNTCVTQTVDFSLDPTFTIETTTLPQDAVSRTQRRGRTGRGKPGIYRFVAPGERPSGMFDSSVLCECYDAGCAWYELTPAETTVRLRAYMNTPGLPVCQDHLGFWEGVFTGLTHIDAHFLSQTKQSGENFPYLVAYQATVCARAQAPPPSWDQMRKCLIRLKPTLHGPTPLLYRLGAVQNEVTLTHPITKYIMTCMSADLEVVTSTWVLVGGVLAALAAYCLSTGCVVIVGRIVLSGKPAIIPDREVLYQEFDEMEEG

## CC(C)(C)OC(=O)N[C@H]1CN(C2CC2)CCC/C=C\C2C[C@@]2(C(=O)NS(=O)(=O)C2CC2)NC(=O)[C@@H]2C[C@@H](Oc3ccccn3)CN2C1=O (some centres unmarked) [Compound 1]
[1]
  IC50: 18 nM
[2]
  IC50: 12 nM

Reference: patent publication US20080107625A1, “Inhibitors of Hepatitis C Virus” (Bristol-Myers Squibb Company, priority 2006, published 2008)
